Test results: PMC7156458, “Synthetic biology based construction of biological activity-related library of fungal decalin-containing diterpenoid pyrones” (Nature Communications, 2020)
Where two headings read alike, the source gives them in different places.

What was measured:
l(2)mbn cells = experiment: cytotoxicity in Drosophila l(2)mbn cells; format: cell-based; details: for Luminescence Raw2: replicate 2; for Luminescence Raw1: replicate 1; for IC50: Drosophila melanogaster, cytotoxicity
Protocol: (§1) We screened the DDPs on the Drosophila assay system for cytotoxicity, inhibitory activity of innate immune signalling and insecticidal activity. The cytotoxicity of the DDPs was evaluated using two cell lines, embryonic macrophage-derived DL1 cells[58]–[60] and larval blood cell-derived l(2)mbn cells, and their IC50 values are listed in Supplementary Table 23.

[1] = cytotoxicity in Drosophila DL1 cells; format: cell-based; details: Drosophila, DL1 cells (embryonic macrophage-derived), DL1 cells
Protocol: as §1

DL1 cells = experiment: cytotoxicity in Drosophila DL1 cells; format: cell-based; details: for IC50: Drosophila melanogaster
Protocol: as §1

MCF-7 cells = experiment: cell cytotoxic effects against MCF-7 cells (72 h), A490; format: cell-based, human; details: MCF-7, 72 h; for viability at 0.1 µM / viability at 1 µM / viability at 10 µM: Homo sapiens, MCF7, 72 h, read-out: A490 (control =1) ave
Protocol: !" ' ' '! !" ' ' '! !" ' ' '!!" ' ' '!!" ' ' '!!" ' ' '!!" ' ' '!!" ' ' '! !" ' ' '! !" ' ' '! !" ' ' '! !"#$
( % ) * '! '' '# '+ '$ '( '%
! " # $ %& %% %' %( %) %! %"
!" ' ' '! !" ' ' '!!" ' ' '!!" ' ' '!!" ' ' '!!" ' ' '!!" ' ' '! !" ' ' '! !" ' ' '! !" ' ' '! !" ' ' '! […]
Supplementary Fig. 46. a, Cell cytotoxic effects of DDPs against MCF-7 cells (72 h).
dose dependent cytotoxic effects against MCF-7 cells were tested their inhibitory activity against mammosphere
formation. Compound in blue (16) was also performed mammosphere assay as negative control. Data represent
mean±s.d. from three independent replicate experiments. […]
Source data underlying Supplementary Figure 46a are provided in a Source Data file. […]

[2] = cytotoxicity in Drosophila l(2)mbn cells; format: cell-based; details: Drosophila, l(2)mbn cells (larval blood cell-derived)
Protocol: as §1

[3] = replicate 1, relative to DMSO 1%, read-out: % viability, viability 1
[4] = replicate 2, relative to DMSO 1%, read-out: % viability, viability 2
[5] = DL1 cells, 0.04 µM, replicate 1
[6] = DL1 cells, 0.04 µM, replicate 2
[7] = DL1 cells, cytotoxicity, average of two replicates, read-out: IC50 Average
[8] = DL1 cells, cytotoxicity, replicate 1, read-out: IC50 (1)
[9] = DL1 cells, cytotoxicity, replicate 2, read-out: IC50 (2)
[10] = 0.1 µM (DMSO 0.002%), control 1.064
[11] = 1 µM (DMSO 0.02%), control 1.104
[12] = 10 µM (DMSO 0.2%), control 1.049

## C=C1CC[C@@H]2[C@](C)(CC[C@H]3O[C@H](C=C(C)C)C[C@@]23C)[C@@H]1Cc1c(OC)oc(CO)c(C(=O)OC)c1=O [Compound 21]
l(2)mbn cells; 0.2 µM
  Luminescence Raw2: 2750409
l(2)mbn cells; 0.4 µM
  Luminescence Raw1: 2719029
  Luminescence Raw2: 2813892
l(2)mbn cells; 0.8 µM
  Luminescence Raw1: 2929318
  Luminescence Raw2: 2922825
l(2)mbn cells; 1 µM
  Luminescence Raw1: 2523535
l(2)mbn cells; average of two replicates, read-out: IC50 Average
  IC50: 2660 nM
l(2)mbn cells; average±SEM, read-out: IC50
  IC50: 2660 ± 220 nM
l(2)mbn cells; replicate 1, read-out: IC50 (1)
  IC50: 2440 nM
l(2)mbn cells; replicate 2, read-out: IC50 (2)
  IC50: 2880 nM
[1]; [3]
  viability at 0.04 µM: 5.78%
  viability at 0.2 µM: 4.01%
  viability at 1 µM: 3.52%
  viability at 4 µM: 3.47%
  viability at 10 µM: 3.5%
  viability at 20 µM: 2.31%
[1]; [4]
  viability at 0.04 µM: 8.79%
  viability at 0.2 µM: 4.17%
  viability at 1 µM: 2.4%
  viability at 4 µM: 3.41%
  viability at 10 µM: 3.92%
  viability at 20 µM: 3.01%
DL1 cells; [5]
  Luminescence Raw1: 237970
DL1 cells; [6]
  Luminescence Raw2: 362006
DL1 cells; DL1 cells, 0.2 µM, replicate 1
  Luminescence Raw1: 165136
DL1 cells; DL1 cells, 0.2 µM, replicate 2
  Luminescence Raw2: 171986
DL1 cells; DL1 cells, 1 µM, replicate 1
  Luminescence Raw1: 144944
DL1 cells; DL1 cells, 1 µM, replicate 2
  Luminescence Raw2: 98793
DL1 cells; DL1 cells, 4 µM, replicate 1
  Luminescence Raw1: 143141
DL1 cells; DL1 cells, 4 µM, replicate 2
  Luminescence Raw2: 140618
DL1 cells; DL1 cells, 10 µM, replicate 1
  Luminescence Raw1: 144223
DL1 cells; DL1 cells, 10 µM, replicate 2
  Luminescence Raw2: 161530
DL1 cells; DL1 cells, 20 µM, replicate 1
  Luminescence Raw1: 95187
DL1 cells; DL1 cells, 20 µM, replicate 2
  Luminescence Raw2: 124032
DL1 cells; [7]
  IC50: < 40 nM
DL1 cells; [8]
  IC50: < 40 nM
DL1 cells; [9]
  IC50: < 40 nM
DL1 cells; DL-1 cell line, cell growth, read-out: IC50
  IC50: < 40 nM
MCF-7 cells; 0.1 µM (DMSO 0.002%)
  viability at 0.1 µM: 114%
MCF-7 cells; 1 µM (DMSO 0.02%)
  viability at 1 µM: 118%
MCF-7 cells; 10 µM (DMSO 0.2%)
  viability at 10 µM: 103%
MCF-7 cells; [10]
  A490 ave: 1.213
MCF-7 cells; [11]
  A490 ave: 1.298
MCF-7 cells; [12]
  A490 ave: 1.083

## C=C1CCC2C(C)(CC(=O)C=C(C)C)C(O)CCC2(C)C1Cc1c(OC)oc(C)c(C)c1=O (stereo not shown) [Compound 25]
[2]; [3]
  viability at 0.04 µM: 124%
  viability at 0.2 µM: 130%
  viability at 1 µM: 121%
  viability at 4 µM: 137%
  viability at 10 µM: 125%
  viability at 20 µM: 87.1%
[2]; [4]
  viability at 0.04 µM: 126%
  viability at 0.2 µM: 134%
  viability at 1 µM: 140%
  viability at 4 µM: 148%
  viability at 10 µM: 136%
  viability at 20 µM: 97.2%
l(2)mbn cells; 0.04 µM
  Luminescence Raw1: 3193720
  Luminescence Raw2: 3243139
l(2)mbn cells; 0.2 µM
  Luminescence Raw1: 3343782
  Luminescence Raw2: 3450197
l(2)mbn cells; 1 µM
  Luminescence Raw1: 3097409
  Luminescence Raw2: 3603150
l(2)mbn cells; 4 µM
  Luminescence Raw1: 3528838
  Luminescence Raw2: 3786770
l(2)mbn cells; 10 µM
  Luminescence Raw1: 3209953
  Luminescence Raw2: 3480138
l(2)mbn cells; 20 µM
  Luminescence Raw1: 2234271
  Luminescence Raw2: 2495041
l(2)mbn cells; average±SEM, read-out: IC50
  IC50: > 20000 nM
[1]; [3]
  viability at 0.04 µM: 135%
  viability at 0.2 µM: 130%
  viability at 1 µM: 128%
  viability at 4 µM: 130%
  viability at 10 µM: 110%
  viability at 20 µM: 19.2%
[1]; [4]
  viability at 0.04 µM: 136%
  viability at 0.2 µM: 129%
  viability at 1 µM: 133%
  viability at 4 µM: 124%
  viability at 10 µM: 127%
  viability at 20 µM: 27.2%
DL1 cells; [5]
  Luminescence Raw1: 2772839
DL1 cells; [6]
  Luminescence Raw2: 2800252
DL1 cells; DL1 cells, 0.2 µM, replicate 1
  Luminescence Raw1: 2673287
DL1 cells; DL1 cells, 0.2 µM, replicate 2
  Luminescence Raw2: 2657777
DL1 cells; DL1 cells, 1 µM, replicate 1
  Luminescence Raw1: 2635775
DL1 cells; DL1 cells, 1 µM, replicate 2
  Luminescence Raw2: 2736769
DL1 cells; DL1 cells, 4 µM, replicate 1
  Luminescence Raw1: 2684468
DL1 cells; DL1 cells, 4 µM, replicate 2
  Luminescence Raw2: 2551374
DL1 cells; DL1 cells, 10 µM, replicate 1
  Luminescence Raw1: 2257781
DL1 cells; DL1 cells, 10 µM, replicate 2
  Luminescence Raw2: 2619904
DL1 cells; DL1 cells, 20 µM, replicate 1
  Luminescence Raw1: 396244
DL1 cells; DL1 cells, 20 µM, replicate 2
  Luminescence Raw2: 560668
DL1 cells; [7]
  IC50: 17200 nM
DL1 cells; DL1 cells, cytotoxicity, average±SEM, read-out: IC50
  IC50: 17200 ± 2060 nM
DL1 cells; [8]
  IC50: 15100 nM
DL1 cells; [9]
  IC50: 19200 nM
MCF-7 cells; 0.1 µM (DMSO 0.002%)
  viability at 0.1 µM: 78.9%
MCF-7 cells; 1 µM (DMSO 0.02%)
  viability at 1 µM: 103%
MCF-7 cells; 10 µM (DMSO 0.2%)
  viability at 10 µM: 112%
MCF-7 cells; [10]
  A490 ave: 0.839
MCF-7 cells; [11]
  A490 ave: 1.141
MCF-7 cells; [12]
  A490 ave: 1.171
